What was measured:
scentless chamomile = assay: Test E scentless chamomile; assay type: in vivo, Matricaria inodora; conditions: Preemergence
[1] = system: Abutilon theophrasti (ABUTH); assay: Test F preemergence, alone and in mixture with rimsulfuron, ABUTH; assay type: in vivo; conditions: 21 days after treatment, 0-100 scale
Method in brief: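 Greenhouse pot plants treated preemergence with compound at 70 and 105 g ai/ha, rimsulfuron at 8.8 and 17.5 g ai/ha, or mixtures; 27° C day/21° C night, 14 hour photoperiod. Injury scored at 21 days after treatment against solvent-sprayed controls; expected additive effect of mixtures calculated by Colby's equation.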

Amaranthus rudis (AMATA) = assay: Test F preemergence, alone and in mixture with rimsulfuron, AMATA; assay type: in vivo; conditions: 21 days after treatment, 0-100 scale
Method: Abutilon theophrasti (ABUTH), Chenopodium album (CHEAL), Amaranthus rudis (AMATA), Setaria faberii (SETFA), Panicum dichotomiflorum (PANDI), and Digitaria sanguinalis (DIGSA) were grown from seed in pots of an artificial potting mixture in a greenhouse. Compounds of the present invention were applied at 70 and 105 g ai/ha preemergence. Rimsulfuron was applied at 8.8 and 17.5 g ai/ha. Mixtures of the compounds of the present invention and rimsulfuron were also applied.
(§1) Following application, the plants were maintained by watering as needed. A fertilizer solution of Peter's 20-20-20 (10 pounds/5 gallons of water) plus Sprint 330, a Iron Chelate micronutrient, (113.5 grams/5 gallons of water) was injected into the water with an Anderson fertilizer injection system to provide approximately 219 ppm of nitrogen with each watering. Artificial lighting was used to supplement natural light to produce a 14 hour photoperiod and: an additional one hour light period was used between 1:00 am to 2:00 am for a night interruption. Greenhouse temperatures were targeted for 27° C. in the day and 21° C. at night. At 21 days after treatment, all plants were evaluated for injury as compared to control plants that were sprayed only with non-phytotoxic solvent.
Colby's equation was used to calculate the expected additive herbicidal effect of the mixtures of Compound 21 and the mixture partners listed above. […]

certain weeds = assay: Test F overall statement on synergism with rimsulfuron (Colby's equation); assay type: in vivo; conditions: combinations with rimsulfuron, preemergence
Method: as §1, with “Abutilon theophrasti (ABUTH), Chenopodium album (CHEAL), Amaranthus rudis (AMATA), Setaria […]), Panicum dichotomiflorum (PANDI), and Digitaria sanguinalis (DIGSA) were grown from seed in pots of an artificial potting mixture in a greenhouse. Compounds of the present invention were applied at 70 and 105 g ai/ha preemergence. Rimsulfuron was applied at 8.8 and 17.5 g ai/ha. Mixtures of the compounds of the present invention and rimsulfuron were also applied. Following” for “Following”, “solvent. […] Colby's equation was used to calculate the expected additive herbicidal effect of the mixtures of Compound 21 and the mixture partners listed above. […]” for “solvent.”

Alexandergrass = assay: Test D Alexandergrass; assay type: in vivo, Brachiaria plantaginea; conditions: Postemergence, 0 to 100 scale
common pursiane = assay: Test D common purslane; assay type: in vivo, Portulaca oleracea; conditions: Postemergence, 0 to 100 scale
dallisgrass = assay: Test D dallisgrass; assay type: in vivo, Paspalum dilatatum; conditions: Postemergence, 0 to 100 scale
guineagrass = assay: Test D guineagrass; assay type: in vivo, Panicum maximum; conditions: Postemergence, 0 to 100 scale
itchgrass = assay: Test D itchgrass; assay type: in vivo, Rottboellia exaltata; conditions: Postemergence, 0 to 100 scale
sandbur = assay: Test D sandbur; assay type: in vivo, Cenchrus echinatus; conditions: Postemergence, 0 to 100 scale
sourgrass = assay: Test D sourgrass; assay type: in vivo, Trichachne insularis; conditions: Postemergence, 0 to 100 scale
surinam grass = assay: Test D surinam grass; assay type: in vivo, Brachiaria decumbens; conditions: Postemergence, 0 to 100 scale
Green foxtail [2] = assay: Test D green foxtail; assay type: in vivo; conditions: Postemergence, 0 to 100 scale, 0 no injury, 100 complete control
Green foxtail [3] = assay: Test D green foxtail; assay type: in vivo; conditions: Postemergence, 0 to 100 scale, 0 no injury, 100 complete control; remark: listed apart in the source
Green foxtail [4] = assay: Test D green foxtail; assay type: in vivo; conditions: Postemergence, 0 to 100 scale, 0 no injury, 100 complete control; remark: listed apart in the source
[5] = Alone: Cmpd. rate 70, Rimsulfuron 0
[6] = Alone: Cmpd. rate 105, Rimsulfuron 0
[7] = Rate 16 g/ha, 0 no injury, 100 complete control
[8] = Rate 32 g/ha, 0 no injury, 100 complete control
[9] = Rate 64 g/ha, 0 no injury, 100 complete control
[10] = Rate 125 g/ha, 0 no injury, 100 complete control

In the case of `CC(C)N(C(=O)n1oc(=O)n(C(C)C)c1=O)c1ccc(Cl)cc1` [Compound 114], the “Plant response rating, Scentless chamo” value (scentless chamomile; Rate 125 g/ha, 0 to 100 scale (0 no effect, 100 complete control)) is reported as 30, the “Plant response rating, Scentless chamo” value (scentless chamomile; Rate 250 g/ha, 0 to 100 scale) is reported as 30 and the “Plant response rating, Scentless chamo” value (scentless chamomile; Rate 500 g/ha, 0 to 100 scale where 0 is no effect and 100 is complete control) is reported as 10.

With `CC(C)N(C(=O)n1oc(=O)n(C(C)C)c1=O)c1ccc(F)cc1` [Compound 131] the “ABUTH Observed” value [1, 5] was 40%, the “ABUTH Observed” value [1, 6] was 60% and the “AMATA Observed” value (Amaranthus rudis (AMATA); [5]) was 50%. For the same molecule, the “AMATA Observed” value (Amaranthus rudis (AMATA); [6]) was 40%, the “Weed control of combination with rimsulfuron compared with expectation from Colby's equation” value (certain weeds) was “better control of certain weeds than expected” and the “Plant response rating, Alexandergrass” value (Alexandergrass; [7]) was 0. For the same molecule, the “Plant response rating, Alexandergrass” value (Alexandergrass; [8]) was 50, the “Plant response rating, Alexandergrass” value (Alexandergrass; [9]) was 100 and the “Plant response rating, Alexandergrass” value (Alexandergrass; [10]) was 100. For the same molecule, the “Plant response rating, Alexandergrass” value (Alexandergrass; Rate 250 g/ha) was 100, the “Plant response rating, C. purslane” value (common pursiane; [7]) was 0 and the “Plant response rating, C. purslane” value (common pursiane; [8]) was 0. For the same molecule, the “Plant response rating, C. purslane” value (common pursiane; [9]) was 0, the “Plant response rating, C. purslane” value (common pursiane; [10]) was 0 and the “Plant response rating, C. purslane” value (common pursiane; Rate 250 g/ha) was 0. For the same molecule, the “Plant response rating, Dallisgrass” value (dallisgrass; [7]) was 20, the “Plant response rating, Dallisgrass” value (dallisgrass; [8]) was 60 and the “Plant response rating, Dallisgrass” value (dallisgrass; [9]) was 100. The “Plant response rating, Dallisgrass” value (dallisgrass; [10]) was 100, the “Plant response rating, Dallisgrass” value (dallisgrass; Rate 250 g/ha) was 100 and the “Plant response rating, Guineagrass” value (guineagrass; [7]) was 0. The “Plant response rating, Guineagrass” value (guineagrass; [8]) was 20, the “Plant response rating, Guineagrass” value (guineagrass; [9]) was 100 and the “Plant response rating, Guineagrass” value (guineagrass; [10]) was 100. The “Plant response rating, Guineagrass” value (guineagrass; Rate 250 g/ha) was 100, the “Plant response rating, Itchgrass” value (itchgrass; [7]) was 0 and the “Plant response rating, Itchgrass” value (itchgrass; [8]) was 0. The “Plant response rating, Itchgrass” value (itchgrass; [9]) was 20, the “Plant response rating, Itchgrass” value (itchgrass; [10]) was 100 and the “Plant response rating, Itchgrass” value (itchgrass; Rate 250 g/ha) was 100. For the same molecule, the “Plant response rating, Sandbur” value (sandbur; [7]) was 0, the “Plant response rating, Sandbur” value (sandbur; [8]) was 0 and the “Sandbur plant response rating” value (sandbur; [9]) was 100. For the same molecule, the “Sandbur plant response rating” value (sandbur; [10]) was 100, the “Plant response rating, Sandbur” value (sandbur; Rate 250 g/ha) was 100 and the “Sourgrass plant response rating” value (sourgrass; [10]) was 50. For the same molecule, the “Plant response rating, Sourgrass” value (sourgrass; Rate 250 g/ha) was “—80”, the “Plant response rating, Surinam grass” value (surinam grass; [7]) was 0 and the “Plant response rating, Surinam grass” value (surinam grass; [8]) was 40. The “Surinam grass plant response rating” value (surinam grass; [9]) was 60, the “Surinam grass plant response rating” value (surinam grass; [10]) was 100 and the “Plant response rating, Surinam grass” value (surinam grass; Rate 250 g/ha) was 100. The “Plant response rating, Green foxtail” value (Green foxtail [2]; Rate 64 g/ha) was 100, the “Plant response rating, Green foxtail” value (Green foxtail [2]; Rate 125 g/ha) was 100 and the “Green foxtail plant response rating” value (Green foxtail [3]; Rate 64 g/ha) was 100. For the same molecule, the “Green foxtail plant response rating” value (Green foxtail [3]; Rate 125 g/ha) was 100, the “Plant response rating, Green foxtail” value (Green foxtail [4]; Rate 16 g/ha) was 0 and the “Plant response rating, Green foxtail” value (Green foxtail [4]; Rate 32 g/ha) was 60.

Reference: patent US6737383B1, “Herbicidal oxadiazolidines” (priority 1999, dated 2004)
